Starred links: 1 amine or outer side, 2 acyl side, 3 side chain; linkers in the order of their positions; H or OH if unused. Positions of bridges follow the written chain, without caps; N, C: chain ends. Residues, ends and D or L forms follow the SMILES beside them. Groups on a side chain read outwards from the residue. *: point of attachment. X1 = O=C(CCCCCCCCCCCCCCCc1nnn[nH]1)NS(=O)(=O)CCCC(=O)*; C20 diacid = O=C(O)CCCCCCCCCCCCCCCCCCC(=O)*; γGlu = O=C(O)[C@H](CCC(=O)[*:2])N[*:1]; AEEA = NCCOCCOCC(=O)O
Target: T1, Amylin 3(a) receptor (human calcitonin receptor (CTa) with RAMP-3) (Homo sapiens, UniProt O60896+P30988)
T1 construct: expressed in transfected cells; host or cells: BHK570 (baby hamster kidney) cells, stably transfected, with CRE-luciferase reporter
Experiment: Amylin luciferase assay (CRE-luciferase reporter in BHK Amylin 3(a)//CRE-luc cells)
Format: cell-based
Conditions: BHK570 cells with human calcitonin receptor (CTa), RAMP-3 and CRE-luciferase reporter; 4 hours incubation; read-out: Potency luciferase assay
Source text: It has previously been published (Poyner D R et al 2002, Pharmacological Reviews 54(2) 233-246) that activation of Amylin receptors (coexpression of Calcitonin receptor and receptor activity modifying peptides RAMPs) by Amylin leads to an increase in the intracellular concentration of cAMP. Consequently, transcription is activated at promotors containing multiple copies of the cAMP response element (CRE). It is thus possible to measure Amylin activity by use of a CRE luciferase reporter gene introduced into BHK cells also expressing an Amylin receptor.
2. Construction of an Amylin 3(a)/CRE-luc Cell Line
A BHK570 cell line stably transfected with the human calcitonin receptor (CTa) and a CRE-responsive luciferase reportergene. The cell line was further transfected with RAMP-3, using standard methods. This turns the Calcitonin receptor into an Amylin 3(a) receptor. Methotrexate, Neomycin, and Hygromycin are selection markers for luciferase, the Calcitonin receptor, and RAMP-3, respectively.
3. Amylin Luciferase Assay
To perform activity assays, BHK Amylin 3(a)//CRE-luc cells were seeded in white 96 well culture plates at a density of about 20.000 cells/well. The cells were in 100 μl growth medium (DMEM with 10% FBS, 1% Pen/Strep, 1 mM Na-pyruvate, 250 nM Methotrexate, 500 μg/ml Neomycin, and 400 μg/ml Hygromycin). After incubation overnight at 37° C. and 5% CO2, the growth medium was replaced by 50 μl/well assay medium (DMEM (without phenol red), Glumamax™, 10% FBS, and 10 mM Hepes, pH 7,4). Further, 50 μl/well of standard or sample in assay buffer were added. After 4 hours incubation at 37° C. and 5% CO2, the assay medium with standard or sample were removed and replaced by 100 μl/well PBS. Further, 100 μl/well LucLite™ was added. The plates were sealed and incubated at room temperature for 30 minutes. Finally, luminescence was measured on a TopCounter (Packard) in SPC (single photon counting) mode.

T1 sequence (O60896 24-148): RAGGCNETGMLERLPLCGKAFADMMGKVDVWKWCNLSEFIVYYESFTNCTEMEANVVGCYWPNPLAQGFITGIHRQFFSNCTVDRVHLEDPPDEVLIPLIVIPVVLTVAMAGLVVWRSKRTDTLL
T1 sequence (P30988 25-474): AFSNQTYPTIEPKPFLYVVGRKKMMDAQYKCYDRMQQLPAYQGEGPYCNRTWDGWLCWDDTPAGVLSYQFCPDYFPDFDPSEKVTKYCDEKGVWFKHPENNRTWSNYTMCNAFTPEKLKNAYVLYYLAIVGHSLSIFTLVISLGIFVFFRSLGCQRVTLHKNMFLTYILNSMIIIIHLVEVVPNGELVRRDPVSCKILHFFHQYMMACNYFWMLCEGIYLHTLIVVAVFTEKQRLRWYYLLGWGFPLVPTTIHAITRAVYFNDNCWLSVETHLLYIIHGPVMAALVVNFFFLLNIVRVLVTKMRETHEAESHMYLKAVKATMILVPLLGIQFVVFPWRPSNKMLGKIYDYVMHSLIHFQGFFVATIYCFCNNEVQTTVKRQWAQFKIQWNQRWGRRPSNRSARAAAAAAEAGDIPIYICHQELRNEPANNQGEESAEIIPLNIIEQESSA

SMILES	EC50
CC[C@H](C)[C@H](NC(=O)[C@@H]1CCCN1C(=O)CNC(=O)[C@H](Cc1ccccc1)NC(=O)[C@H](CC(N)=O)NC(=O)[C@H](CC(N)=O)NC(=O)[C@H](CO)NC(=O)[C@H](CO)NC(=O)[C@H](Cc1c[nH]cn1)NC(=O)[C@@H](NC(=O)[C@H](CC(C)C)NC(=O)[C@H](Cc1ccccc1)NC(=O)[C@H](CC(N)=O)NC(=O)[C@H](C)NC(=O)[C@H](CC(C)C)NC(=O)[C@H](CCCNC(=N)N)NC(=O)[C@H](CCC(N)=O)NC(=O)[C@@H](NC(=O)[C@H](C)NC(=O)[C@@H]1CSSC[C@H](NC(=O)[C@@H](N)CCCCN)C(=O)N[C@@H](CC(N)=O)C(=O)N[C@@H]([C@@H](C)O)C(=O)N[C@@H](C)C(=O)N[C@@H]([C@@H](C)O)C(=O)N1)[C@@H](C)O)C(C)C)C(=O)N[C@@H](CC(C)C)C(=O)N1CCC[C@H]1C(=O)N[C@@H](CCCCNC(=O)COCCOCCNC(=O)COCCOCCNC(=O)CCCCCCCCCCCCCCCCCCC(=O)O)C(=O)N[C@H](C(=O)N[C@@H](CC(N)=O)C(=O)N[C@H](C(=O)NCC(=O)N[C@@H](CO)C(=O)N[C@@H](CC(N)=O)C(=O)N[C@H](C(=O)N[C@@H](Cc1ccc(O)cc1)C(N)=O)[C@@H](C)O)C(C)C)[C@@H](C)O [Example 6, N-epsilon29-(2-{2-[2-(2-{2-[2-(19-carboxynonadecanoylamino)ethoxy]ethoxy}acetylamino)ethoxy]ethoxy}acetyl)-[Lys29]-pramlintide (1-37)] (H-KCNTATCATQRLANFLVHSSNNFGPILPK([AEEA-AEEA-C20 diacid])TNVGSNTY-NH2; disulfide 2-7; N-terminus and C-terminus assumed)	0.2 nM
CC[C@H](C)[C@H](NC(=O)[C@@H]1CCCN1C(=O)CNC(=O)[C@H](Cc1ccccc1)NC(=O)[C@H](CC(N)=O)NC(=O)[C@H](CCCCNC(=O)COCCOCCNC(=O)COCCOCCNC(=O)CCCCCCCCCCCCCCCCCCC(=O)O)NC(=O)[C@H](CO)NC(=O)[C@H](CO)NC(=O)[C@H](Cc1c[nH]cn1)NC(=O)[C@@H](NC(=O)[C@H](CC(C)C)NC(=O)[C@H](Cc1ccccc1)NC(=O)[C@H](CC(N)=O)NC(=O)[C@H](C)NC(=O)[C@H](CC(C)C)NC(=O)[C@H](CCCNC(=N)N)NC(=O)[C@H](CCC(N)=O)NC(=O)[C@@H](NC(=O)[C@H](C)NC(=O)[C@@H]1CSSC[C@H](NC(=O)[C@@H](N)CCCCN)C(=O)N[C@@H](CC(N)=O)C(=O)N[C@@H]([C@@H](C)O)C(=O)N[C@@H](C)C(=O)N[C@@H]([C@@H](C)O)C(=O)N1)[C@@H](C)O)C(C)C)C(=O)N[C@@H](CC(C)C)C(=O)N1CCC[C@H]1C(=O)N1CCC[C@H]1C(=O)N[C@H](C(=O)N[C@@H](CC(N)=O)C(=O)N[C@H](C(=O)NCC(=O)N[C@@H](CO)C(=O)N[C@@H](CC(N)=O)C(=O)N[C@H](C(=O)N[C@@H](Cc1ccc(O)cc1)C(N)=O)[C@@H](C)O)C(C)C)[C@@H](C)O [Example 7, N-epsilon2′-(2-{2-[2-(2-{2-[2-(19-carboxynonadecanoylamino)ethoxy]ethoxy}acetylamino)ethoxy]ethoxy}acetyl)-[Lys21]-pramlintide (1-37)] (H-KCNTATCATQRLANFLVHSSK([AEEA-AEEA-C20 diacid])NFGPILPPTNVGSNTY-NH2; disulfide 2-7; N-terminus and C-terminus assumed)	0.1 nM

Now from value to compound:

EC50	SMILES
0.09 nM	CC[C@H](C)[C@H](NC(=O)[C@@H]1CCCN1C(=O)CNC(=O)[C@H](Cc1ccccc1)NC(=O)[C@H](CC(N)=O)NC(=O)[C@H](CC(N)=O)NC(=O)[C@H](CO)NC(=O)[C@H](CO)NC(=O)[C@H](Cc1c[nH]cn1)NC(=O)[C@@H](NC(=O)[C@H](CC(C)C)NC(=O)[C@H](Cc1ccccc1)NC(=O)[C@H](CC(N)=O)NC(=O)[C@H](C)NC(=O)[C@H](CC(C)C)NC(=O)[C@H](CCCNC(=N)N)NC(=O)[C@H](CCC(N)=O)NC(=O)[C@@H](NC(=O)[C@H](C)NC(=O)[C@@H]1CSSC[C@H](NC(=O)[C@H](CCC(=O)O)NC(=O)[C@H](CCCNC(=N)N)NC(=O)[C@H](CCC(=O)O)NC(=O)[C@H](CCC(=O)O)NC(=O)CCCS(=O)(=O)NC(=O)CCCCCCCCCCCCCCCc2nnn[nH]2)C(=O)N[C@@H](CC(N)=O)C(=O)N[C@@H]([C@@H](C)O)C(=O)N[C@@H](C)C(=O)N[C@@H]([C@@H](C)O)C(=O)N1)[C@@H](C)O)C(C)C)C(=O)N[C@@H](CC(C)C)C(=O)N1CCC[C@H]1C(=O)N1CCC[C@H]1C(=O)N[C@H](C(=O)N[C@@H](CC(N)=O)C(=O)N[C@H](C(=O)NCC(=O)N[C@@H](CO)C(=O)N[C@@H](CC(N)=O)C(=O)N[C@H](C(=O)N[C@@H](Cc1ccc(O)cc1)C(N)=O)[C@@H](C)O)C(C)C)[C@@H](C)O [Example 31, N-alpha-[4-(16-1H-tetrazol-5-yl-hexadecanoylsulfamoyl)-butyryl]-Glu-Glu-Arg-[Glu1]pramlintide (1-37)] (X1-EERECNTATCATQRLANFLVHSSNNFGPILPPTNVGSNTY-NH2; disulfide 5-10)
0.05 nM	CC[C@H](C)[C@H](NC(=O)[C@@H]1CCCN1C(=O)CNC(=O)[C@H](Cc1ccccc1)NC(=O)[C@H](CC(N)=O)NC(=O)[C@H](CC(N)=O)NC(=O)[C@H](CO)NC(=O)[C@H](CO)NC(=O)[C@H](Cc1c[nH]cn1)NC(=O)[C@@H](NC(=O)[C@H](CC(C)C)NC(=O)[C@H](Cc1ccccc1)NC(=O)[C@H](CC(N)=O)NC(=O)[C@H](C)NC(=O)[C@H](CC(C)C)NC(=O)[C@H](CCCNC(=N)N)NC(=O)[C@H](CCC(N)=O)NC(=O)[C@@H](NC(=O)[C@H](C)NC(=O)[C@@H]1CSSC[C@H](NC(=O)[C@@H](N)CCCCN)C(=O)N[C@@H](CCCCNC(=O)CCCCCCCCCCCCCCCCCCC(=O)O)C(=O)N[C@@H]([C@@H](C)O)C(=O)N[C@@H](C)C(=O)N[C@@H]([C@@H](C)O)C(=O)N1)[C@@H](C)O)C(C)C)C(=O)N[C@@H](CC(C)C)C(=O)N1CCC[C@H]1C(=O)N1CCC[C@H]1C(=O)N[C@H](C(=O)N[C@@H](CC(N)=O)C(=O)N[C@H](C(=O)NCC(=O)N[C@@H](CO)C(=O)N[C@@H](CC(N)=O)C(=O)N[C@H](C(=O)N[C@@H](Cc1ccc(O)cc1)C(N)=O)[C@@H](C)O)C(C)C)[C@@H](C)O [Example 14, N-epsilon3-(19-carboxynonadecanoyl)-[Lys3]-pramlintide (1-37)] (H-KCK(C20 diacid)TATCATQRLANFLVHSSNNFGPILPPTNVGSNTY-NH2; disulfide 2-7; N-terminus assumed)
0.3 nM	CC[C@H](C)[C@H](NC(=O)[C@@H]1CCCN1C(=O)CNC(=O)[C@H](Cc1ccccc1)NC(=O)[C@H](CC(N)=O)NC(=O)[C@H](CC(N)=O)NC(=O)[C@H](CO)NC(=O)[C@H](CO)NC(=O)[C@H](Cc1c[nH]cn1)NC(=O)[C@@H](NC(=O)[C@H](CC(C)C)NC(=O)[C@H](Cc1ccccc1)NC(=O)[C@H](CC(N)=O)NC(=O)[C@H](C)NC(=O)[C@H](CC(C)C)NC(=O)[C@H](CCCNC(=N)N)NC(=O)[C@H](CCC(N)=O)NC(=O)[C@@H](NC(=O)[C@H](C)NC(=O)[C@@H]1CSSC[C@H](NC(=O)[C@@H](N)CCCCN)C(=O)N[C@@H](CCCCNC(=O)COCCOCCNC(=O)COCCOCCNC(=O)CC[C@H](NC(=O)CCCCCCCCCCCCCCCCCCC(=O)O)C(=O)O)C(=O)N[C@@H]([C@@H](C)O)C(=O)N[C@@H](C)C(=O)N[C@@H]([C@@H](C)O)C(=O)N1)[C@@H](C)O)C(C)C)C(=O)N[C@@H](CC(C)C)C(=O)N1CCC[C@H]1C(=O)N1CCC[C@H]1C(=O)N[C@H](C(=O)N[C@@H](CC(N)=O)C(=O)N[C@H](C(=O)NCC(=O)N[C@@H](CO)C(=O)N[C@@H](CC(N)=O)C(=O)N[C@H](C(=O)N[C@@H](Cc1ccc(O)cc1)C(N)=O)[C@@H](C)O)C(C)C)[C@@H](C)O [Example 12, N-epsilon3-[2-(2-{2-[2-(2-{2[(S)-4-carboxy-4-(19-carboxynonadecanoylamino)butyrylamino]ethoxy}ethoxy)acetylamino]ethoxy}ethoxy)acetyl]-[Lys3]-pramlintide (1-37)] (H-KCK([AEEA-AEEA-γGlu-C20 diacid])TATCATQRLANFLVHSSNNFGPILPPTNVGSNTY-NH2; disulfide 2-7; N-terminus and C-terminus assumed)

Reference: US20100222269A1, “IMPROVED DERIVATIVES OF AMYLIN” (priority 2007, published 2010)
